# In PMC2921400 (PLoS ONE, 2010):
# Where “and” joins values, the source holds several entries; their conditions need not be identical. Equal entries are not always repeated. Where two headings read alike, the source gives them in different places.
# Columns and labels:
# [1] = target: T1, soluble extracellular portion of CD4 (sCD4) (Homo sapiens, UniProt P01730); assay: sCD4 tryptophan fluorescence titration; format: binding; settings: for Kd: pH 7.4, single site binding isotherm; for quenching of sCD4 tryptophan fluorescence / red shift of the emission peak: saturating concentrations of PA analog
# T1 construct: soluble extracellular portion of CD4 (sCD4); purchased Progenics Pharmaceuticals, Inc
# Description: The tryptophan fluorescence of the soluble extracellular portion of CD4 (sCD4) was used to estimate binding affinity of PA analogs for sCD4 in-vitro (Figure 2).
# Figure 2 In vitro experiments of PA analogs binding to sCD4. Binding isotherm of the sCD4 tryptophan fluorescence at the wavelength of 350 nm with the increasing concentration of A) 2-BP, B) 6-AP, and C) SP; D) stoichiometric binding of 2-BP to sCD4. Tryptophan fluorescence was measured using an excitation wavelength of 280 nm. In all cases, we observed tryptophan fluorescence quenching of sCD4 by the increasing concentration of PA analogs. During stoichiometric binding experiment the concentration of sCD4 was kept at 200 nM, which is well above the dissociation constant of 2-BP-sCD4, 74 nM. Curve fitting (OriginLab) was performed to find the best values for Kd using a single site binding isotherm approximation.
# Since PA analogs form micelles at micromolar concentration it was important to characterize binding stoichiomentry of PA analogs to CD4 (Figure 2D). […] The concentration of sCD4 was kept at 200 nM, which is well above the 74 nM dissociation constant of 2-BP-CD4. In this case, titrated 2-BP was fully bound. The observed changes in sCD4 fluorescence would level off when 2-BP-sCD4 reached proper stoichiometry.
# Measurements were performed on a Fluorolog-3 fluorescence spectrophotometer (HORIBA Jobin Yvon) at 25°C in a 1-ml stirred cuvette. For fluorescence titration experiments, 100 nM of sCD4 dissolved in 10 mM phosphate buffer [pH 7.4] and 250 mM NaCl was used, and 100 µM solution of PA analogs, 2-BP, 6-AP, and SP dissolved in dimethylsulfoxide (DMSO) was added in 10 nM steps. Titrations in the absence of sCD4 and in the absence PA analogs were performed as reference. Tryptophan fluorescence was measured using an excitation wavelength of 280 nm. The fluorescence emission signal was subtracted from the signal of the reference titrations, and the differences adjusted by the dilution factor were plotted against the final concentration of added PA analogs. Curve fitting (OriginLab) was performed to find the best values for Kd using a single site binding isotherm approximation.
# [2] = target: T2, soluble gp120 (Human immunodeficiency virus type 1 group M subtype B, UniProt P03375); assay: reverse ELISA: plates coated with sCD4, gp120 incubated with compound; format: binding, HIV-1; settings: plates coated with sCD4, gp120 incubated with increasing concentrations (not shown)
# T2 construct: purchased
# [3] = target: T3, gp120 (IIIB)-CD4 complex (Homo sapiens, UniProt P01730); assay: gp120 capture ELISA, inhibition of gp120-CD4 complex formation; format: binding, HIV-1
# T3 construct: soluble extracellular portion of CD4 (sCD4); purchased ImmunoDiagnostics, Inc., MA
# Description: Figure 3 Inhibition of gp120-CD4 complex formation. Inhibition of gp120-CD4 complex formation was investigated by gp120 capture ELISA. […] Strepavidin-HRP was added, and then developed by addition of o-Phenylenediamine dihydrochloride (OPD) substrate. Colorimetric reaction was stopped by adding 1N HCl, and read at 490 nm. Percent of gp120-CD4 binding was calculated from gp120-CD4 complex formation in the absence of any inhibitor. pKi (-log Ki, M) was calculated and plotted in Prizm (GraphPad Software), and inhibition constant, Ki, was calculated by using the equation Ki = IC50/(1+[CD4]/Kd), based on IC50 concentration of bound CD4, [CD4] = 50 nM, and CD4 binding affinity for gp120, Kd = 5 nM. Representative of three experiments, all data are mean ± SD.
# Inhibition of gp120-CD4 complex formation was investigated by CD4-to-gp120 capture ELISA, in accordance with manufacturer's instructions (ImmunoDiagnostics, Inc., MA), and as previously described. […] Strepavidin-HRP was added, and then developed by addition of OPD substrate. Colorimetric reaction was stopped by adding 1N HCl, and read at 490 nm. Percent of gp120-CD4 binding was calculated from gp120-CD4 complex formation in the absence of any inhibitor.
# [4] = tested on: 1G5 cells; assay: MTT viability assay in 1G5 cells; format: cell-based; settings: 100 to 10,000 nM, up to 72 h, vs untreated mock control
# Description: (§1) To ascertain possible toxicity of PA analogs, we tested each analog in cell culture system (Figure 4). 1G5 cells were treated with increasing concentrations of 2-BP, 6-AP, or SP, from 100 to 10,000 nM, and viability was determined by MTT assay at 24 h. (not shown) and at 72 h (Figure 4). Viability for all treatments and at all concentrations tested, remained ≥92% for up to 72 h. of follow-up.
# (§2) Figure 4 Viability of PA analogs in tissue culture. 1G5 cells were treated with increasing concentrations of 2-BP, 6-AP, and SP, as indicated, and cell viability was determined 72 h. after treatment by MTT assay. % Viable cells were calculated from untreated mock control, which was taken as 100% viable. Bars indicate ± SD, representative of 2 experiments.
# (§3) For determination of viability, 1G5 cells were seeded in 12 well plates at 1×10^6 cells/well, treated with increasing concentrations of PA analogs, from 100 to 10,000 nM (0.1 to 10 µM), as indicated. After 24 and 72 hours, cells were collected and analyzed for viability by a CellTiter 96 Non-Radioactive Cell Proliferation Assay [(3-(4,5-Dimethyl-2-thiazolyl)-2,5 dephenyltetrazolium, Promega,] (MTT) assay, as specified by the manufacturer, and as previously described.
# [5] = critical micelle concentration by 1D proton NMR; format: physicochemical
# [6] = MTT viability assay in 1G5 cells; format: cell-based; settings: human, 1G5 cells, 100 to 10,000 nM, up to 72 h, vs untreated mock control
# Description: as §1, §2, §3
# [7] = target: CD4 receptor; settings: cited from earlier work
# [8] = tested on: X4-tropic HIV-1; settings: primary PBL and macrophages; read-out: IC50 of productive X4-tropic HIV-1 infection; cited from earlier work
# [9] = tested on: gp120; settings: cited from earlier work
# [10] = tested on: R5-tropic HIV-1; settings: primary PBL and macrophages; read-out: IC50 of productive R5-tropic HIV-1 infection; cited from earlier work
# [11] = tested on: R5-tropic HIV-1; parameters: method as in submitted for publication; settings: ref submitted for publication, cited from earlier work
# [12] = target: gp120-to-CD4 attachment; parameters: method as in submitted for publication; settings: ref submitted for publication; read-out: Ki for blocking gp120-to-CD4 attachment; cited from earlier work
# [13] = 100 nM sCD4, 25°C, read-out: Kd, dissociation constant for sCD4
# [14] = Ki = IC50/(1+[CD4]/Kd), [CD4] = 50 nM, Kd = 5 nM, read-out: Ki, inhibition constant for gp120-CD4 complex formation
Molecule,"Kd [1, 13]",quenching of sCD4 tryptophan fluorescence [1],red shift of the emission peak [1],inhibition of gp120-CD4 complex formation in reverse experiment [2],"Ki [3, 14]","pKi (-log Ki, M) ([3]; gp120 (IIIB), 50 nM biotin-sCD4, mean ± SD)",viability [4],"cmc, critical micelle concentration [5]","Kd ([1]; Kd, dissociation constant for sCD4, 100 nM sCD4, 25°C)","concentration at which fluorescence quenching was saturated ([1]; stoichiometric titration, sCD4 kept at 200 nM)","Ki ([3]; pKi (-log Ki, M), gp120 (IIIB), 50 nM biotin-sCD4, mean ± SD)",viability [6],Kd [7],IC50 [8],binding to gp120 [9],IC50 [10],inhibition of R5-tropic HIV-1 infection ([11]; cervical explant model of human vagina and submucosa primary PBL and macrophage cells),toxicity in cervical explant model ([11]; cervical explant model of human vagina),Ki [12],"Ki ([3]; Ki, inhibition constant for gp120-CD4 complex formation, Ki = IC50/(1+[CD4]/Kd), [CD4] = 50 nM, Kd = 5 nM)"
Sucrose palmitate [SP],364 nM and ~364 nM,60%,5 nm,not inhibited,1490 nM and ~1490 nM,5.83 ± 0.15,≥ 92%,30 µM,,,,,,,,,,,,
"CCCCCCCCCCCCCCC(Br)C(=O)O (centres unmarked) [2-BP, 2-Bromohexadecanoic acid]",,50%,4 nm,not inhibited,122 nM and ~122 nM,,,5 µM,74 nM and ~74 nM,200 µM,120 nM,≥ 92%,,,,,,,,
"CCCCCCCCCCCCCCCC(=O)O [PA, Palmitic acid]",,,,,,,,4 µM,,,,,~1500 nM,~340 nM,does not bind to gp120,~33 µM,inhibited,without toxicity,~2530 nM,
"CCCCCCCCCCCCCCCC(=O)OC[C@H](O)[C@H]1OC(=O)C(O)=C1O [6-AP, 6-O-Palmitoyl-L-ascorbic acid]",140 nM and ~140 nM,40%,3 nm,not inhibited,,,,7 µM,,,,≥ 92%,,,,,,,,354 nM and ~354 nM
